Results reported in PMC10215804, “Exploring Alternative Pathways to Target Bacterial Type II Topoisomerases Using NBTI Antibacterials: Beyond Halogen-Bonding Interactions” (Antibiotics, 2023).
Read-outs that look alike come from different tables or passages of the source.

Columns and labels:
[1] = molecular target: T1, E. coli topoIV (Escherichia coli, UniProt P0AFI2); assay: topoIV relaxation inhibition assay (high-throughput plate assay); format: biochemical
T1 construct: purchased Inspiralis (Norwich, UK)
Description: (§1) To determine the IC50 values of the compounds for S. aureus and E. coli, a DNA gyrase supercoiling high-throughput plate assay and a topoIV relaxation high-throughput plate assay were performed. Assay kits and black streptavidin-coated 96-well microtiter plates are available from Inspiralis (Norwich, UK). For pre-screening, an inhibitor concentration of 100 μM was used. […] A nonlinear regression-based fit of the inhibition curves was used, with the log [inhibitor] versus slope of the reaction variables (four parameters) and a symmetric equation. […] To determine IC50 values, two independent repetitions were performed and the average was calculated.

[2] = molecular target: T2, S. aureus topoIV (Staphylococcus aureus, UniProt P0C1U9); assay: biochemical; conditions: relaxation inhibition; mean of two independent measurements ± SD
T2 construct: purchased Inspiralis (Norwich, UK)
T2 sequence (P0C1U9 whole entry): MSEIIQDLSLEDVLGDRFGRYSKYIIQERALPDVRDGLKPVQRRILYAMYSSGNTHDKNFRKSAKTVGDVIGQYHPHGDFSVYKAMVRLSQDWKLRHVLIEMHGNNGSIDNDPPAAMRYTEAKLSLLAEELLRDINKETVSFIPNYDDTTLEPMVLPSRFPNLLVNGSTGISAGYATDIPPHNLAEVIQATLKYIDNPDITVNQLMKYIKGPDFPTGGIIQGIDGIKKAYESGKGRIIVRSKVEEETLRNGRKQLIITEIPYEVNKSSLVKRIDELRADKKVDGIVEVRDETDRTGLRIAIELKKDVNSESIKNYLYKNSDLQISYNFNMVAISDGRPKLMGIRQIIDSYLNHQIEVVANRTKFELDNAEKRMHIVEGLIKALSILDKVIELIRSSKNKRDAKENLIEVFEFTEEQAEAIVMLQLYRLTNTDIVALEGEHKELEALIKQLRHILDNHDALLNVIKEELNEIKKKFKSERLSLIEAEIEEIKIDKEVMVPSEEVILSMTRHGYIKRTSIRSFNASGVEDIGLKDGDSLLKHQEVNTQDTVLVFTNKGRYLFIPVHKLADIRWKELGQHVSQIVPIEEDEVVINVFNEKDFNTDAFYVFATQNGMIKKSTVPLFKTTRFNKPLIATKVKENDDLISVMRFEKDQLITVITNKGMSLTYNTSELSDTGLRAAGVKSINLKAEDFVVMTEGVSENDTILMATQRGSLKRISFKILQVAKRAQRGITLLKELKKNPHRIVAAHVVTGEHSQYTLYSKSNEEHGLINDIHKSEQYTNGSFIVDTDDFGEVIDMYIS
T2 sequence (P0C1S7 whole entry partner): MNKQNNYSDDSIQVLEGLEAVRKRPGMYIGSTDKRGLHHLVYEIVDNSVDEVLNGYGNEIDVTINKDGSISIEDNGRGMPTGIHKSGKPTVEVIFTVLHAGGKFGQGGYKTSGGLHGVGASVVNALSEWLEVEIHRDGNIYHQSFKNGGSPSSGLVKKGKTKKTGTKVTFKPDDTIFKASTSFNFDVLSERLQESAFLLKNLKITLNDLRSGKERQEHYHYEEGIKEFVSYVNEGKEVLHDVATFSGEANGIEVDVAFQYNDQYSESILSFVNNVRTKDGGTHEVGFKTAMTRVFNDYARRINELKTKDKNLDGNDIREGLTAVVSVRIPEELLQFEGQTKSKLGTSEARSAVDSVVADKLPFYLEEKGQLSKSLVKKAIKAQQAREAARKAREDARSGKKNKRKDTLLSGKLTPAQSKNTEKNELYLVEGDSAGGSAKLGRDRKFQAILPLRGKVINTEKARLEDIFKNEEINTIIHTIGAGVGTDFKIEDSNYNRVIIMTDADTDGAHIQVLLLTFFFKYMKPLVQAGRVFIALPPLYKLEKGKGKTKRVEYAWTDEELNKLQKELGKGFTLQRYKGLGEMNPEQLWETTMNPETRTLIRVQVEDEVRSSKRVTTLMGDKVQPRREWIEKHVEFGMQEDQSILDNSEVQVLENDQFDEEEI
Description: as §1

[3] = molecular target: T3, S. aureus DNA gyrase (Staphylococcus aureus, UniProt P20831); assay: biochemical; conditions: supercoiling inhibition; mean of two independent measurements ± SD
T3 construct: purchased Inspiralis (Norwich, UK)
T3 sequence (P20831 whole entry): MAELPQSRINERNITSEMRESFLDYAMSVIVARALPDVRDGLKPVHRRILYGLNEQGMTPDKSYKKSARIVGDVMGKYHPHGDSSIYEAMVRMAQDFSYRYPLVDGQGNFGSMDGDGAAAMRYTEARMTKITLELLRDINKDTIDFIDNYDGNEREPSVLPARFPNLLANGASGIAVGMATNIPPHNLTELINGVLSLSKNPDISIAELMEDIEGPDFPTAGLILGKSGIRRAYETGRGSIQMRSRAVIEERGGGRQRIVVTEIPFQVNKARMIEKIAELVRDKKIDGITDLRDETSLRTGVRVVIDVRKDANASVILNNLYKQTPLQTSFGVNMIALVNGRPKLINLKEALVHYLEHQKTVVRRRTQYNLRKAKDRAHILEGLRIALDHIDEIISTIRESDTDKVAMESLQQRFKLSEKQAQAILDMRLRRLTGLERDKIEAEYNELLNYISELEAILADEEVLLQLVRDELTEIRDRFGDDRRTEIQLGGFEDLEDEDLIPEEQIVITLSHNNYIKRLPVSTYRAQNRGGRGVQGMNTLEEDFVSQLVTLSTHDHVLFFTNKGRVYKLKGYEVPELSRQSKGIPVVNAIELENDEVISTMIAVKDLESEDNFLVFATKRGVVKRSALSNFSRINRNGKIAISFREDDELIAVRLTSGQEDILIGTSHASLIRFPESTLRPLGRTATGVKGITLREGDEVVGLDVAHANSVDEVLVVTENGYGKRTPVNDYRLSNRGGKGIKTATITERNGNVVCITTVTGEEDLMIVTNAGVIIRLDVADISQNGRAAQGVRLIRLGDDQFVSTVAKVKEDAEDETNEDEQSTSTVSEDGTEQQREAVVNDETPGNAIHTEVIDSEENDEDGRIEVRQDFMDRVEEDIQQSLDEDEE
T3 sequence (P0A0K8 whole entry partner): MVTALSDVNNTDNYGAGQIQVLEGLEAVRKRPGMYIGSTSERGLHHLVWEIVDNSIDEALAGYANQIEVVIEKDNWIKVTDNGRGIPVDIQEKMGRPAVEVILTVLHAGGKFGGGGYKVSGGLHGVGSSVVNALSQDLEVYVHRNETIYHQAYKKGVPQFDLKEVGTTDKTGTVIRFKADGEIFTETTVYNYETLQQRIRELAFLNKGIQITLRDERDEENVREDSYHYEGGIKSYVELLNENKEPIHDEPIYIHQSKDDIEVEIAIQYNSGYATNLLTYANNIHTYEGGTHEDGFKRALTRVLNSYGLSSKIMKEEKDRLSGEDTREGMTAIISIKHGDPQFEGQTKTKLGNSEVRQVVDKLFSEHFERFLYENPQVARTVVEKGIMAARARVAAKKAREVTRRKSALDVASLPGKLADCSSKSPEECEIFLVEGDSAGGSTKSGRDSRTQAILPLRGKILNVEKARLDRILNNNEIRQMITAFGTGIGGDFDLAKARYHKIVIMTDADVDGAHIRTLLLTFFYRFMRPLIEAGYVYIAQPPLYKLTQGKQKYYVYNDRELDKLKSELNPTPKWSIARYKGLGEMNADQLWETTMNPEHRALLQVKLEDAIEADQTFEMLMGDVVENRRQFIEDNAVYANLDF
Description: as §1

[4] = molecular target: T4, human topoisomerase IIα (Homo sapiens, UniProt P11388); assay: human topoisomerase II alpha relaxation high-throughput assay (selectivity); format: biochemical; conditions: residual activity at 100 µM compound; mean ± SD, two independent experiments; read-out: Human TopoIIα (% RA at 100 µM)
T4 construct: purchased Inspiralis (Norwich, UK)
T4 sequence (P11388 whole entry): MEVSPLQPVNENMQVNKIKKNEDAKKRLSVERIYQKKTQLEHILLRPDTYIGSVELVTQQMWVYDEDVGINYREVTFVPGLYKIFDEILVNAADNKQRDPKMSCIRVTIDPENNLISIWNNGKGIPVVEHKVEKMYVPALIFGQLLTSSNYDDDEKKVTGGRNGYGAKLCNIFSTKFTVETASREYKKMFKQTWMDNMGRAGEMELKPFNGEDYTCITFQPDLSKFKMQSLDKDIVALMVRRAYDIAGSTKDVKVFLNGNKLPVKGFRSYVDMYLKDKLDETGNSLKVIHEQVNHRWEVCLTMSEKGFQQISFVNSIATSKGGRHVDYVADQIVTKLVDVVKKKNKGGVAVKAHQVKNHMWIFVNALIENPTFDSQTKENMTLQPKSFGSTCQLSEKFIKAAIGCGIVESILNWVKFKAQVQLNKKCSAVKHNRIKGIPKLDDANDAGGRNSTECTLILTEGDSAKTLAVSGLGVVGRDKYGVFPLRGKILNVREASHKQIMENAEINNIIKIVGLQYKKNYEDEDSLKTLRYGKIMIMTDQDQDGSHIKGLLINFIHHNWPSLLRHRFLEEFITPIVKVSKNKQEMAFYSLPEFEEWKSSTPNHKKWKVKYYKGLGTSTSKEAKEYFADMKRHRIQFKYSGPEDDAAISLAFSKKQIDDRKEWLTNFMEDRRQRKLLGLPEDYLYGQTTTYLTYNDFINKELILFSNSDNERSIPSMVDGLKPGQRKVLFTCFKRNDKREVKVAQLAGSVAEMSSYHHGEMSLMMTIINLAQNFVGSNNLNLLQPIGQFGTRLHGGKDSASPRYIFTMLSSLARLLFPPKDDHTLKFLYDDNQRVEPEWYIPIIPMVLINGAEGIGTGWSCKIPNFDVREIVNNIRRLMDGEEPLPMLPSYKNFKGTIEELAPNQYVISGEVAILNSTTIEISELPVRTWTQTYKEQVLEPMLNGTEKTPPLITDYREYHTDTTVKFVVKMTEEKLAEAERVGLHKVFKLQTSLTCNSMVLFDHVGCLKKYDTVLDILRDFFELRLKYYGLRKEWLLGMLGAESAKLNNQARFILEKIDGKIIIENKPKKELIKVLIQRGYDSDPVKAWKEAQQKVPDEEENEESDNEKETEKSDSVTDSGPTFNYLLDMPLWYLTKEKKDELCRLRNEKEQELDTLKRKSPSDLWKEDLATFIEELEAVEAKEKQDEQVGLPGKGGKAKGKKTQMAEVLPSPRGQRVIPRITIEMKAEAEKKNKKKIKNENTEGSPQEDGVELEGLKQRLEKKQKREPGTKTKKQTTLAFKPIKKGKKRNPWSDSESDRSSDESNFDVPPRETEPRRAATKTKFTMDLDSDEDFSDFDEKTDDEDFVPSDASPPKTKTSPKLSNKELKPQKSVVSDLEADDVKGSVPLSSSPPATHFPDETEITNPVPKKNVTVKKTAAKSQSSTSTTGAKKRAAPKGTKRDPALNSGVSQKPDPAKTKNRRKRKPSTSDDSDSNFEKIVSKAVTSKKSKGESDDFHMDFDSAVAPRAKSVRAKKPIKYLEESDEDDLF
Description: For selectivity determination, a human topoisomerase II alpha relaxation high-throughput assay was used. The assay kits and black streptavidin-coated 96-well microtiter plates are available from Inspiralis (Norwich, UK). Two independent measurements were performed with an inhibitory concentration of 100 µM. Raw data were calculated as the mean ± SD percentage of the residual enzyme activity.

[5] = Metabolic activity assessment (cytotoxicity), CellTiter 96 Aqueous One; format: cell-based; conditions: human, 72 h treatment, means of three independent measurements ± SD
Description: HUVEC (ATCC® CRL-1730™) and HepG2 (ATCC® HB-8065™) cell lines were cultured in Dulbecco’s Modified Eagle Medium (DMEM; Sigma-Aldrich, St. Louis, MO, USA) supplemented with 10% heat-deactivated FBS (Gibco, Grand Island, NE, USA), 2 mM L-glutamine, 100 U/mL penicillin, 100 μg/mL streptomycin (all from Sigma-Aldrich, St. Louis, MO, USA) in a humidified chamber at 37 °C and 5% CO2. The experiments were carried out on passages 4–7 for both cell lines. The tested compounds were dissolved in DMSO and further diluted in culture medium to a desired final concentration. The cells were then seeded into 96-well plates at 5 × 10^4 cells/mL (100 μL/well) or 8 × 10^4 cells/mL (100 μL/well) for HUVEC and HepG2, respectively. The cells were then incubated for 24 h to allow attachment onto the wells. The cells were treated with 1 μM and 50 μM of each compound of interest, or the corresponding vehicle as control. […] Their metabolic activity was assessed after 72 h treatment using a CellTiter 96 Aqueous One Solution Cell Proliferation Assay (Promega, Madison, WI, USA), in accordance with the manufacturer’s instructions. The absorbance was measured at 492 nm on an automated microplate reader, Tecan Spark (Tecan Group Ltd., Männedorf, CH, Switzerland). Data are presented as the percentage of metabolic activity of control cells stimulated with vehicle, or as an IC50 value (mean ± SD) from three independent experiments, each conducted in triplicate (for screening) or duplicate (for IC50 determination). IC50 values were calculated using a non-linear regression model and with Graph Pad Prism 9 software.

[6] = tested on: E. coli ESBL QA-11.3; assay: MIC, broth microdilution; format: cell-based; conditions: Escherichia coli
Description: (§2) For the determination of minimum inhibitory concentrations (MIC), the broth microdilution method was used in 96-well plate format, according to the guidelines of the Clinical and Laboratory Standards Institute and the recommendations of the European Committee on Antimicrobial Susceptibility Testing (EUCAST). The dilutions of the bacterial suspension of the specific bacterial strain, corresponding to the 0.5 McFarland turbidity standard, were prepared with […] Mueller–Hinton broth with TES (Thermo Fisher Scientific) to obtain an end inoculum of 10^5 CFU/mL. The compounds were dissolved in DMSO and mixed with the inoculum. […] The MIC was determined as the lowest concentration of antibiotic that prevented visible bacterial growth. Tetracycline was used as a positive control on each test plate.

[7] = tested on: K. pneumoniae; assay: MIC, broth microdilution; format: cell-based; conditions: Klebsiella pneumoniae
Description: as §2

[8] = tested on: E. coli D22; assay: MIC, broth microdilution; format: cell-based; conditions: Escherichia coli
Description: as §2

[9] = tested on: E. coli (ATCC 25922); assay: MIC, broth microdilution; format: cell-based; conditions: Escherichia coli
Description: as §2

[10] = tested on: S. aureus (ATCC 29213); assay: MIC, broth microdilution; format: cell-based; conditions: Staphylococcus aureus, ATCC29213
Description: as §2

[11] = tested on: VRE; assay: MIC, broth microdilution; format: cell-based; conditions: Enterococcus
Description: as §2

[12] = tested on: P. aeruginosa RDK 184; assay: MIC, broth microdilution; format: cell-based; conditions: Pseudomonas aeruginosa
Description: as §2

[13] = tested on: E. faecalis RDK 057; assay: MIC, broth microdilution; format: cell-based
Description: as §2

[14] = tested on: A. baumannii; assay: MIC, broth microdilution; format: cell-based; conditions: Acinetobacter baumannii
Description: as §2

[15] = tested on: E. coli N43 (CGSC# 5583); assay: MIC, broth microdilution; format: cell-based; conditions: Escherichia coli
Description: as §2

[16] = ESBLQA11.3, Table S3, read-out: MIC (μM) E. coli ESBL QA:11.3
[17] = ESBLQA11.3, read-out: MIC E. coli ESBL QA-11.3
[18] = Table S3, read-out: MIC (μM) K. pneumoniae
[19] = D22, Table S3, lpxC mutation, read-out: MIC (μM) E. coli D22
[20] = D22, lpxC mutation that increases membrane permeability, read-out: MIC E. coli D22
[21] = ATCC25922, Table S3, read-out: MIC (μM) E. coli (ATCC 25922)
[22] = ATCC25922, read-out: MIC E. coli (ATCC 25922)
[23] = Table S3, read-out: MIC (μM) S. aureus (ATCC 29213)
[24] = read-out: MIC S. aureus (ATCC 29213)
[25] = Table S3, read-out: MIC (μM) VRE
[26] = RDK184, 20 h, Table S3, read-out: MIC (μM) P. aeruginosa RDK 184
[27] = RDK184, read-out: MIC P. aeruginosa RDK 184
[28] = Enterococcus faecalis, RDK057; Table S3; read-out: MIC (μM) E. faecalis DRK 057
[29] = Table S3, read-out: MIC (μM) A. baumannii
[30] = read-out: MIC E. coli N43 (CGSC# 5583)
[31] = ESBLQA11.3, 20 h, Table S3, read-out: MIC (μM) E. coli ESBL QA:11.3
[32] = 20 h, Table S3, read-out: MIC (μM) K. pneumoniae
[33] = ATCC25922, 20 h, Table S3, read-out: MIC (μM) E. coli (ATCC 25922)
[34] = Enterococcus faecalis, RDK057; read-out: MIC E. faecalis RDK 057

Structure (SMILES)	IC50 [1] [nM]	IC50 [2] [nM]	IC50 [3] [nM]	remaining activity at 100 µM [4] [%]	IC50 at 72 h ([5]; HUVEC cells (ATCC CRL-1730)) [nM]	IC50 at 72 h ([5]; HepG2 cells (ATCC HB-8065)) [nM]	MIC [6, 17] [µg/mL]	MIC ([7]; read-out: MIC K. pneumoniae) [µg/mL]	MIC [8, 20] [µg/mL]	MIC [9, 22] [µg/mL]	MIC [10, 23] [µM]	MIC [10, 24] [µg/mL]	MIC [11, 25] [µM]	MIC ([11]; read-out: MIC VRE) [µg/mL]	MIC [12, 26] [µM]	MIC [12, 27] [µg/mL]	MIC [14, 29] [µM]	MIC ([14]; read-out: MIC A. baumannii) [µg/mL]	MIC ([15]; read-out: MIC (μM) E. coli N43) [µM]	MIC [15, 30] [µg/mL]	other results
COc1ccc2nccc(CCN3CCC(NCc4ccc(C)cc4)CC3)c2n1 [Compound 5, 1-(2-(6-Methoxy-1,5-naphthyridin-4-yl)ethyl)-N-(4-methylbenzyl)piperidin-4-amine]	89 ± 19	1230 ± 258	145 ± 14	103	36500 ± 9820	20000 ± 3010	4	16	1	2	0.082	0.032	0.082	0.032	> 328	> 128	2.56	1	0.32	0.125	MIC [6, 16]: 10.2 µM; MIC [7, 18]: 41 µM; MIC [8, 19]: 2.56 µM; MIC [9, 21]: 5.12 µM; MIC ([13]; Enterococcus faecalis, RDK057, read-out: MIC E. faecalis RDK 057): 0.125 µg/mL; MIC [13, 28]: 0.32 µM
COc1ccc2nccc(OCC3CCC(NCc4ccc(C)cc4)CC3)c2n1 (centres unmarked) [Compound 6]	2890 ± 880	> 100000	403 ± 20	101	36600 ± 7910	22500 ± 2700	> 128	> 128	32	> 128	2.56	1	5.12	2	> 328	> 128	164	64	10.2	4	MIC [6, 31]: > 328 µM; MIC [7, 32]: > 328 µM; MIC [8, 19]: 81.9 µM; MIC [9, 33]: > 328 µM; MIC [13, 28]: 20.5 µM; MIC [13, 34]: 8 µg/mL
COc1ccc2nccc(OCC3CCC(NCc4ccc(C)cc4)CO3)c2n1 (centres unmarked) [Compound 7, 6-(((6-Methoxy-1,5-naphthyridin-4-yl)oxy)methyl)-N-(4-methylbenzyl)tetrahydro-2H-pyran-3-amine]	1530 ± 43	> 100000	194 ± 18	101	> 50000	> 50000	> 128	> 128	32	> 128	1.28	0.5	5.12	2	> 328	> 128	164	64	10.2	4	MIC [6, 31]: > 328 µM; MIC [7, 32]: > 328 µM; MIC [8, 19]: 81.9 µM; MIC [9, 33]: > 328 µM; MIC ([13]; Enterococcus faecalis, RDK057, read-out: MIC (μM) E. faecalis DRK 057): 10.2 µM; MIC [13, 34]: 4 µg/mL
COc1ccc2nccc(C(O)CC3CCC(NCc4ccc(C)cc4)CC3)c2n1 (centres unmarked) [Compound 8, 1-(6-Methoxy-1,5-naphthyridin-4-yl)-2-(4-((4-methylbenzyl)amino)cyclohexyl)ethan-1-ol]	83	2500 ± 252	77 ± 10	100 ± 1	33100 ± 6130	22300 ± 360	8	16	1	8	0.161	0.063	0.32	0.125	328	128	5.12	2	2.56	1	MIC [6, 16]: 20.5 µM; MIC [7, 18]: 41 µM; MIC ([8]; D22, read-out: MIC (μM) E. coli D22): 2.56 µM; MIC [9, 21]: 20.5 µM; MIC [13, 28]: 0.64 µM; MIC [13, 34]: 0.25 µg/mL
